# Reference: patent US20090239898A1 (SCIENCOM LTD., priority 2003, published 2009)
# Key:
# [1] = system: patient who had suffered a stroke; assay: Clinical observation after zolpidem in a stroke patient (Example 1); type: in vivo, human; conditions: 10 mg zolpidem
# Source text: They had suffered a stroke several years before and presented with left-sided paraplegia since the onset of their stroke. Their cognition was still normal but they had some aphasia and decreased proprioseption that was evident from their inability to use scissors with their right hand. The clinical and neurological features of the patient were unremarkable apart from the above.
# [2] = system: patients with Spinocerebellar Ataxia Type 2; assay: Clinical response to zolpidem in a family with Spinocerebellar Ataxia Type 2 (Example 2); type: in vivo, human
# Source text: There is currently no effective pharmacologic treatment for spinocerebellar ataxia. […] Spinocerebellar Ataxia Type 2 was confirmed by molecular analysis.
# [3] = system: patient with Ramsay-Hunt syndrome; assay: Zolpidem therapy of Ramsay-Hunt syndrome (Example 3); type: in vivo, human
# Source text: On treatment, the following features improved. […] Also, as part of the syndrome they could not close their left eye. After zolpidem they could.
# [4] = system: patient after subarachnoid haemorrhage; assay: Hearing and speech evaluation before and after zolpidem after subarachnoid haemorrhage (Example 4); type: in vivo, human
# Method: The patient was then examined for any changes in hearing. […] The patient was also evaluated by the speech therapist before and after zolpidem.
# [5] = system: patient after subarachnoid haemorrhage; assay: Brain SPECT before and after zolpidem after subarachnoid haemorrhage (Example 4); type: in vivo, human; conditions: 1 hour after 10 mg zolpidem
# Parkinson's disease = conditions: in vivo; cited from earlier work
# semi-comatose patient = conditions: reverts when drug action subsides; cited from earlier work
# abnormal baboon = conditions: cited from earlier work
smiles,measurement,setting,value
Cc1ccc(-c2nc3ccc(C)cn3c2CC(=O)N(C)C)cc1 [zolpidem],clinical changes after zolpidem,[1],no marked clinical changes
same,ability to use scissors,[1]; for the next few hours until drug action subsided,able to use scissors
same,time to clinical improvement,[2]; 10 mg zolpidem,≤ 1 h
same,patients improved clinically,"[2]; family of five patients, 10 mg zolpidem",four
same,"ataxia, intention tremor and titubation",[2]; patient P1,improved moderately
same,"ataxia, intention tremor and titubation",[2]; patient P2,improved
same,"ataxia, intention tremor and titubation",[2]; patient P3,improved moderately
same,clinical improvement,[2]; patient P4,no improvement
same,"ataxia, intention tremor and titubation",[2]; patient P5,slightly improved
same,closing of left eye,[3]; after zolpidem,they could
same,drinking fluids,[3]; on zolpidem treatment,able to drink fluids directly from a cup
same,tonus of facial nerves,[3]; on zolpidem treatment,improved
same,hearing (pre and post-zolpidem audiograms),[4]; after 10 mg zolpidem,improved
same,sleepiness,[4]; after 10 mg zolpidem,slightly sleepy
same,speech ability,[4]; after 10 mg zolpidem,improved markedly
same,persistence of hearing and speech improvements,[4]; even after halving the zolpidem dose,remained for the duration of drug action
same,defect in the right parietal aspect of the brain,[5],remained unchanged
same,obsessive-compulsive symptoms (cessation of verbal iterations),Parkinson's disease,improved
same,symptoms of PD (akinesia and rigidity),Parkinson's disease,improved
same,state of consciousness after drug application,semi-comatose patient,exits their permanent vegetative state
same,brain perfusion,abnormal baboon; brain-abnormal baboon,asymmetric increased perfusion
CCOC(=O)c1ncn2c1CN(C)C(=O)c1cc(F)ccc1-2 [flumazenil],effect on zolpidem-induced asymmetric perfusion pattern,abnormal baboon; abnormal baboon,attenuates the influence of zolpidem
CN1C(=O)CN=C(c2ccccc2)c2cc(Cl)ccc21 [diazepam],state of consciousness after drug application,semi-comatose patient,not awakened
